Results taken from PubChem BioAssay (NCI).
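Step 1: Grow cells in 96-well plates. Step 2: Expose to compound for 48 hours at 5 concentrations. Step 3: Interpolate endpoints linearly; if unreached, use highest concentration. GI50 is the concentration that inhibits growth by half. At the TGI there is no net growth.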

Experiments:
Assay in all cases: NCI tumour cell line growth inhibition, 48 h
U251 CNS = tested on: U251 CNS
A498 renal = tested on: A498 renal
SW-620 colon = tested on: SW-620 colon
OVCAR-8 ovarian = tested on: OVCAR-8 ovarian
HCT-15 colon = tested on: HCT-15 colon
SF-268 CNS = tested on: SF-268 CNS
SNB-75 CNS = tested on: SNB-75 CNS
MDA-MB-435 = tested on: MDA-MB-435
MCF7 breast = tested on: MCF7 breast
PC-3 prostate = tested on: PC-3 prostate

SMILES	GI50 (U251 CNS) [µM]	TGI (U251 CNS) [µM]	GI50 (A498 renal) [µM]	TGI (A498 renal) [µM]	GI50 (SW-620 colon) [µM]	TGI (SW-620 colon) [µM]	GI50 (OVCAR-8 ovarian) [µM]	TGI (OVCAR-8 ovarian) [µM]	GI50 (HCT-15 colon) [µM]	TGI (HCT-15 colon) [µM]	GI50 (SF-268 CNS) [µM]	TGI (SF-268 CNS) [µM]	GI50 (SNB-75 CNS) [µM]	TGI (SNB-75 CNS) [µM]	GI50 (MDA-MB-435) [µM]	TGI (MDA-MB-435) [µM]	GI50 (MCF7 breast) [µM]	TGI (MCF7 breast) [µM]	GI50 (PC-3 prostate) [µM]	TGI (PC-3 prostate) [µM]
NCCN.NCCN.O=C([O-])CCl.O=C([O-])CCl.[Co+3].[O-][Cl+3]([O-])([O-])[O-]	> 100	> 100	> 100	> 100	> 100	> 100	> 100	> 100	> 100	> 100	> 100	> 100	74.7	> 100						
O=c1nc(NC(c2ccccc2)(c2ccccc2)c2ccccc2)ccn1CCNCCn1ccc(NC(c2ccccc2)(c2ccccc2)c2ccccc2)nc1=O		18.8		78		31.9		38.7		> 100		32.4		> 100						
Cc1ccc([N+](=O)[O-])cc1NC(=O)c1cccc([N+](=O)[O-])c1O		> 100		48		> 100		> 100		> 100		83.9		43.7						
COC(=O)NC12CC3CC(CC(F)(C3)C1)C2		> 100		> 100		> 100		> 100						> 100						
O=S(=O)(c1cccc2c(Cl)cccc12)N1CCCNCC1	14.6	27.7	17.9	32.5	17.9	31.8	14.1	31.4	14.5	27.5	21.8	52.9			14.9	28.6	24.5	50.8	13.8	26.8
CN(C)C=[N+]=[N-]		> 100		> 100		> 100		> 100		> 100		> 100		> 100						
O=C(c1ccccc1)[C@@H]1C[C@H](Sc2ccccc2)c2cc(Cl)ccc2N1		60.1		48.1		59.8		66.8		> 100		48.4		58.7						
COc1cc2c(cc1OC)[C@H]1C(COC(=O)c3ccccc3)CSC(=Nc3ccccc3)N1CC2 (some centres undefined)		> 100		> 100		> 100		> 100		> 100		> 100		> 100						
c1ccc2cc3[s+]snc3cc2c1		> 100		> 100		> 100		> 100		> 100		> 100		> 100						
Cc1[nH]c(=O)n2c(C)nnc2c1C(=O)Nc1cc(Cl)cc(Cl)c1		53.2				> 100		> 100		78.7		> 100		88.9						
C/C=C1/CCC2c3[nH]c4ccccc4c3CCN2C1 (centres undefined)		> 100		> 100		> 100		> 100				> 100		> 100						
COc1ccc(S(=O)(=O)Nc2cc(/C=C\c3cc(OC)c(OC)c(OC)c3)ccc2OC)cc1	0.108	> 100	0.0357	0.382	0.0785	> 100	0.276	> 100	0.0623	> 100	0.401	> 100	0.0708	91.4			0.0426	> 100	0.124	> 100
